Measured values from patent US20240279202A1 (NURIX THERAPEUTICS, INC., priority 2021, published 2024).

Assays:
[1] = Mouse PK analysis (blood/plasma concentration after oral administration); type: in vivo; details: mice; for concentration at 6 h: read-out: Cal. Conc. Total (μM) 6 h
Experimental: Compounds 1, 3, 7, and 42 were formulated and administered at 90 mg/kg to mice by oral gavage (PO). Blood was collected at defined time points (after 1, 2, and 6 hours) after compounds administration to determine PK parameters. Concentration increased through 6 hours. Six hours later mice were sacrificed and splenocytes were isolated and used to prepare protein lysates. Total protein levels were determined in the lysates using the BCA assay according to standard methods. Equal amounts of protein were then analyzed by Western blot to determine the level of ITK expression in each sample. ITK band intensities were measured using Alpha View software and the percent of ITK remaining in each test animal was determined relative to the mean of ITK levels in vehicle control samples.
Compounds 16, 17, and 18 were administered to mice orally. After 6 hours or 24 hours, splenocytes cells were harvested. ITK was evaluated by Western blotting. Plasma concentrations were determined by LC/MS/MS. Plasma samples were protein precipitated by addition of 100 μl of acetonitrile containing 50 ng/ml of internal standard. The resulting mixture was vortexed and centrifuged at 4000 RPM for 5 minutes. An aliquot of the resultant supernatant (75 μl) was added to 75 μl of 0.1% formic acid in water to constitute the final sample for injection. Samples were injected on a Shimadzu Exion LC Binary Gradient AD Pump HLPC system connected to a Sciex QTRAP 6500+mass spectrometer. Five μl of sample was injected onto a Waters Acquity UPLC BEH C18 column 130A (2.1×30 mm, […]) at 40° C. utilizing a flow rate of 700 μl/minute. Mobile Phase A was 0.1% formic acid in water and mobile phase B was 0.1% formic acid in acetonitrile. A linear gradient of 15-95% B over 1.0 minute was used. The mass spectrometer was operated in positive ion electrospray mode with multiple reaction monitoring for maximum sensitivity. Sciex Analyst software (version 1.6.3) was used for LC/MS/MS instrument control and acquisition. Compound concentration was determined against a standard curve of internal standard versus compound peak area ratio. Noncompartmental PK parameters were determined using […] software (version 8.2.0.4383) from Certara. Plasma concentrations from the LC/MS/MS analyses, dose, route of administration, and desired units were utilized for PK parameter calculations. […] FIG. 4C provides the concentration over time of compound 17 following in vivo oral administration in the 6 hour and 24 hour assays.
Cmax, Tmax and AUClast were all calculated using a WinNonLin Phoenix 64 v 8.2.0.4383. Using non-compartmental analysis, Tmax, Cmax and AUClast were determined as follows: • Tmax—Time of maximum observed concentration. • Cmax—Maximum observed concentration, occurring at time Tmax, as defined above. • AUClast—Area under the curve from the time of dosing to the time of the last measurable (positive) concentration (Tlast).

[2] = biological target: T1, ITK (Homo sapiens, UniProt Q08881); assay: ITK degradation MSD (Meso Scale Discovery) assay; type: cell-based; parameters: either human Jurkat (Clone E6-1 ATCC TIB-152) or Motl4 (ATCC CRL-1552), were plated; endogenous in cells; host or cells: Jurkat clone E6-1 (ATCC TIB-152) or Molt4 (ATCC CRL-1552); details: Jurkat or Molt4 cells, 4 or 6 hrs
T1 sequence (Q08881 1-620): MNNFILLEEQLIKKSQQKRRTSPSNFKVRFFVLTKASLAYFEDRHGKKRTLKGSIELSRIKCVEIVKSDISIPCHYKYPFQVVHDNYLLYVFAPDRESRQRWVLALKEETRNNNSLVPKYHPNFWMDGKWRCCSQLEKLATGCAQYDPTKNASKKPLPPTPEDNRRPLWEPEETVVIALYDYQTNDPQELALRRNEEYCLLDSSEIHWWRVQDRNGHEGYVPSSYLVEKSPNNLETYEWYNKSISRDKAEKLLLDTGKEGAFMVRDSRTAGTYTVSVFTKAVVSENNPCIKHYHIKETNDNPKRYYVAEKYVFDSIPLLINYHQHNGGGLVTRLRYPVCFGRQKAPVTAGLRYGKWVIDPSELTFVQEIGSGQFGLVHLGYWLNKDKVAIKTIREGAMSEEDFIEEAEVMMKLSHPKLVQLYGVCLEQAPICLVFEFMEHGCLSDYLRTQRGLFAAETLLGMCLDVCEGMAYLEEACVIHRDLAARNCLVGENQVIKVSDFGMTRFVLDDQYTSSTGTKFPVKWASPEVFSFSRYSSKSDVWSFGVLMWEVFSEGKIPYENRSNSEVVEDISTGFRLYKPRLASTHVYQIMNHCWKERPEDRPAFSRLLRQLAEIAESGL
Experimental: ITK Degradation MSD (Meso Scale Discovery) Assay Compound dilution series (7-point, 5 fold dilutions in DMSO, rows B-H with replicate in Column 1⁄2, 3⁄4, 5⁄6, 7,8, at 2000× the final required concentrations were prepared in 96 well plates (Falcon, cat. no. 353077). Row A, Column 1-8 were control DMSO. The 2000× solutions ranged from 2 mM to 128 nM (final assay concentration range 1 μM to […]). The 2000× solutions were added to cells in […], for a final DMSO concentration of 0.5% and final assay compound concentration of 1×. For the cells, either human Jurkat (Clone E6-1 ATCC TIB-152) or Motl4 (ATCC CRL-1552), were plated at 1×10^6 cells/mL, 100 μL/well ([…]) in complete RPMI (10% FBS, 1% L-glutamine). Cells were incubated for 4 or 6 hrs at 32° C./6% CO2. Following incubation, plates were centrifuged at 1200 rpm for 5 min. supernatant was removed and 50 μL of cell lysis buffer ((MSD Tris lysis buffer (R60TX), Complete Mini EDTA-free protease inhibitor (Sigma 11836170001), Protease Inhibitor Cocktail (Sigma, P2714), Phosphatase Inhibitor Cocktail 2 and 3 (Sigma, P5726 and P0044), and Benzonase (Sigma, E1014)) was added to each well. Plates were sealed and shook at 4° C. for 30 min. Plates were centrifuged and 45 μL was removed for plate assays. Assay plate preparation: Meso Scale Discovery (MSD) multi-array sm spot 96 well plates (Goat anti-Rabbit L^45-RA), were blocked with 3% BSA blocking buffer (3% Bovine Serum Albumin (Sigma A3059)+TBS 0.2% Tween-20) for 1 hr with gentle rocking at room temperature. Plates were then washed with 200 μL of 1× TBST (TBS 0.2% Tween-20) 3 times. After last wash, liquid was removed and 50 μL per well of capture antibody (abcam ITK Y402-ab32507) was added to plates at a 1:1000 dilution in blocking buffer (above). Plates were sealed and rocked at room temperature for 2 hrs. Plates were then washed 3 times with 200 μL of 1× TBST. After last wash, liquid was removed and 45 μL of cell lysate (from above) was added to each plate. Plates were sealed and rocked overnight at 4° C. Next day, cell lysates were removed, and assay plates were washed 3 times with 200 μL of 1× TBST. After last wash, liquid was removed and detection antibody (CST ITK (2F12) #2380) was added at 50 μL per well at a dilution of 1:1000 in blocking buffer. Plates were sealed and rocked at room temperature for 2 hrs. Plates were washed 3 times with 200 uL of 1× TBST. After last wash, liquid was removed, MSD Mouse anti-Rabbit sulfo tag (R32AC-1) was diluted to 1:1000 in blocking buffer. 50 μL was added to each well on the plate. Plates were sealed and incubated at room temperature for 1 hr. Plates were washed 3 times with 200 μL of 1× TBST. After last wash, liquid was removed and 150 μL of 1× MSD Read Buffer T ([…]) was then added to each well for ECL read out. For reading ECL signal, plate is read on a Meso Scale Discovery (MSD) MESO Sector S 600 plate reader. Percent ITK in then calculated as described below. Percent ITK remaining per sample was calculated as follows: [formula] Using Graphpad Prism, % ITK remaining values were plotted as a function of compound concentration. To determine DC50 and Dmax values, resulting curves were fit to the Prism curve-fitting equation “log(inhibitor) vs response-Variable slope (four parameters)” (reported best fit value IC50 used as DC50).

C[C@@]12Cc3[nH]nc(C(=O)Nc4cnn([C@H](c5ccccc5)C5CN(C(=O)C6CCN(c7ccc8c(c7)C(=O)N(C7CCC(=O)NC7=O)C8=O)CC6)C5)c4)c3C[C@@H]1C2(F)F (stereo partly drawn) [Compound 38, (4aS,5aR)-N-(1-((1S)-(1-(1-(2-(2,6-dioxopiperidin-3-yl)-1,3-dioxoisoindolin-5-yl)piperidine-4-carbonyl)azetidin-3-yl)(phenyl)methyl)-1H-pyrazol-4-yl)-5,5-difluoro-5a-methyl-1,4,4a,5,5a,6-hexahydrocyclopropafindazole-3-carboxamide]
concentration at 2 h ([1]; mouse, plasma, oral, 90 mg/kg, 2 h, read-out: Cal. Conc. Total (μM) 2 h): 0.0046 µM
concentration at 6 h ([1]; mouse, plasma, oral, 90 mg/kg): 0.0024 µM
DC50 [2]: 0.2 nM
Dmax [2]: 84%

C[C@@]12Cc3[nH]nc(C(=O)Nc4cnn([C@H](c5ccccc5)C5CN(C(=O)C6CCN(c7ccc(C(=O)NC8CCC(=O)NC8=O)nc7)CC6)C5)c4)c3C[C@@H]1C2(F)F (stereo partly drawn) [Compound 40, (4aS,5aR)-N-(1-((1S)-(1-(1-(6-((2,6-dioxopiperidin-3-yl)carbamoyl)pyridin-3-yl)piperidine-4-carbonyl)azetidin-3-yl)(phenyl)methyl)-1H-pyrazol-4-yl)-5,5-difluoro-5a-methyl-1,4,4a,5,5a,6-hexahydrocyclopropa[f]indazole-3-carboxamide]
Cal. Conc. Total (μM) 2 h ([1]; 2 h): BQL
concentration at 6 h ([1]; mouse, plasma, oral, 90 mg/kg): 0.009 µM
Dmax [2]: 46%
